In ChEMBL document CHEMBL2029344, “A new class of prolylcarboxypeptidase inhibitors, part 2: the aminocyclopentanes” (Bioorg Med Chem Lett, 2012):

Legend:
[1] = Drug uptake in C57 mouse plasma at 10 mg/kg, po after 20 hrs by LC/MS analysis; type: ADME, organism-based; set-up: dose 10 mg/kg, route oral
Mus musculus [2] = experiment: Toxicity in po dosed C57 mouse; type: organism-based; conditions: in vivo
[3] = Drug uptake in C57 mouse plasma at 30 mg/kg, po after 20 hrs by LC/MS analysis; type: ADME, organism-based; set-up: dose 30 mg/kg, route oral
[4] = Ratio of drug uptake in brain to plasma of C57 mouse at 3 mg/kg, po after 20 hrs by LC/MS analysis; type: ADME, organism-based; set-up: dose 3 mg/kg, route oral; conditions: read-out: BPR
Mus musculus [5] = experiment: Ex-vivo inhibition of PrCP in heat inactivated 100% plasma of C57 mouse assessed as target engagement calculated as [cmpd]plasma/([cmpd]plasma + Ki (heat inactivated plasma))x100 at 10 mg/kg, po after 20 hrs by FRET analysis; type: functional; set-up: scale not given: the % may be the effect or the level left
[6] = Stability in human liver microsomes after 30 mins by LC/MS analysis; type: ADME, Microsome; conditions: read-out: Stability
Mus musculus [7] = experiment: Ex-vivo inhibition of PrCP in heat inactivated 100% plasma of C57 mouse assessed as target engagement calculated as [cmpd]plasma/([cmpd]plasma + Ki (heat inactivated plasma))x100 at 3 mg/kg, po after 20 hrs by FRET analysis; type: functional; set-up: scale not given: the % may be the effect or the level left
[8] = Percentage unbound in 10% mouse plasma; type: ADME, cell-free
Mus musculus [9] = experiment: Ex-vivo inhibition of PrCP in heat inactivated 100% plasma of C57 mouse assessed as target engagement at 10 mg/kg, po after 20 hrs by FRET analysis; type: functional; set-up: scale not given: the % may be the effect or the level left
[10] = Apparent permeability across pig LLC-PK1 cells at 1 uM; type: ADME, cell-based, Sus scrofa
[11] = Drug uptake in C57 mouse brain at 3 mg/kg, po after 20 hrs by LC/MS analysis; type: ADME, organism-based; set-up: dose 3 mg/kg, route oral; conditions: read-out: Drug uptake
Mus musculus [12] = experiment: Ex-vivo inhibition of po dosed mouse PrCP by FRET analysis in presence of heat inactivated 100% plasma; type: functional, organism-based
Mus musculus [13] = experiment: Ex-vivo inhibition of PrCP in heat inactivated 100% plasma of C57 mouse assessed as target engagement at 3 mg/kg, po after 20 hrs by FRET analysis; type: functional; set-up: scale not given: the % may be the effect or the level left
Mus musculus [14] = experiment: Ex-vivo inhibition of PrCP in heat inactivated 100% plasma of C57 mouse assessed as target engagement calculated as [cmpd]plasma/([cmpd]plasma + Ki (heat inactivated plasma))x100 at 30 mg/kg, po after 20 hrs by FRET analysis; type: functional; set-up: scale not given: the % may be the effect or the level left
[15] = Ratio of drug uptake in brain to plasma of C57 mouse at 30 mg/kg, po after 20 hrs by LC/MS analysis; type: ADME, organism-based; set-up: dose 30 mg/kg, route oral; conditions: read-out: BPR
[16] = Percentage unbound in 10% human plasma; type: ADME, cell-free
[17] = Drug uptake in C57 mouse brain at 10 mg/kg, po after 20 hrs by LC/MS analysis; type: ADME, organism-based; set-up: dose 10 mg/kg, route oral; conditions: read-out: Drug uptake
Mus musculus [18] = experiment: Ex-vivo inhibition of PrCP in heat inactivated 100% plasma of po dosed C57 mouse assessed as target engagement after 20 hrs by FRET analysis; type: functional; set-up: scale not given: the % may be the effect or the level left
[19] = Ratio of drug uptake in brain to plasma of C57 mouse at 10 mg/kg, po after 20 hrs by LC/MS analysis; type: ADME, organism-based; set-up: dose 10 mg/kg, route oral; conditions: read-out: BPR
[20] = Drug uptake in C57 mouse brain at 30 mg/kg, po after 20 hrs by LC/MS analysis; type: ADME, organism-based; set-up: dose 30 mg/kg, route oral; conditions: read-out: Drug uptake
[21] = Drug uptake in C57 mouse plasma at 3 mg/kg, po after 20 hrs by LC/MS analysis; type: ADME, organism-based; set-up: dose 3 mg/kg, route oral
[22] = target: T1, Lysosomal Pro-X carboxypeptidase (Mus musculus, UniProt Q7TMR0); experiment: Inhibition of mouse PrCP
T1 sequence (Q7TMR0 whole entry): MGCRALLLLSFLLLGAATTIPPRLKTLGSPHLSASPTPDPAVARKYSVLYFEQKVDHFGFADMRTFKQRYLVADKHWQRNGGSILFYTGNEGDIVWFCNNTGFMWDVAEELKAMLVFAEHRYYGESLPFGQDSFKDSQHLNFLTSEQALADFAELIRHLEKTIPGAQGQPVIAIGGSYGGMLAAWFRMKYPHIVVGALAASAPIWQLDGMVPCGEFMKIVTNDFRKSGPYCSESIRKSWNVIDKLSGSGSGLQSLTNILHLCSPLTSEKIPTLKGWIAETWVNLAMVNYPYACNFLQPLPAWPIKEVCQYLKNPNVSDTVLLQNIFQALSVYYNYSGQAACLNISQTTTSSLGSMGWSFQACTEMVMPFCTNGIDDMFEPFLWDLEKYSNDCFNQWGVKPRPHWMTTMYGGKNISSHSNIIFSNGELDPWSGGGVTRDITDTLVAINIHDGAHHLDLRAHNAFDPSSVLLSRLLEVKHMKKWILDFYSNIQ

Mus musculus [23] = experiment: Ex-vivo inhibition of po dosed mouse PrCP by FRET analysis in absence of plasma; type: functional, organism-based
Mus musculus [24] = experiment: Ex-vivo inhibition of PrCP in heat inactivated 100% plasma of C57 mouse assessed as target engagement at 30 mg/kg, po after 20 hrs by FRET analysis; type: functional; set-up: scale not given: the % may be the effect or the level left
[25] = Stability in mouse liver microsomes after 30 mins by LC/MS analysis; type: ADME, Microsome; conditions: read-out: Stability
Mus musculus [26] = experiment: Ex-vivo inhibition of po dosed mouse PrCP by FRET analysis in presence of heat inactivated 25% plasma; type: functional, organism-based
[27] = Volume of distribution in mouse at 1 mg/kg, iv and 30 mg/kg, po; type: ADME, organism-based; conditions: in vivo
[28] = Clearance in mouse at 1 mg/kg, iv and 30 mg/kg, po; type: ADME, organism-based; conditions: in vivo
[29] = Oral bioavailability in mouse at 30 mg/kg; type: ADME, organism-based; conditions: in vivo
[30] = Half life in mouse at 1 mg/kg, iv and 30 mg/kg, po; type: ADME, organism-based; conditions: in vivo
Mus musculus [31] = experiment: Dose normalized AUC in mouse at 1 mg/kg, iv and 30 mg/kg, po; type: ADME, organism-based; conditions: in vivo

| SMILES | concentration at 20 h [1] | concentration at 20 h [3] | Activity (Mus musculus [5]) | remaining at 0.5 h [6] | fraction unbound [8] | Activity (Mus musculus [9]) | Papp at 1 µM [10] | Ki (Mus musculus [12]) | Activity (Mus musculus [14]) | Kp at 20 h [15] | fraction unbound [16] | concentration at 20 h [17] | Kp at 20 h [19] | concentration at 20 h [20] | Ki (Mus musculus [23]) | Activity (Mus musculus [24]) | remaining at 0.5 h [25] | Ki (Mus musculus [26]) | also measured |
| --- | --- | --- | --- | --- | --- | --- | --- | --- | --- | --- | --- | --- | --- | --- | --- | --- | --- | --- | --- |
| C[C@@]1(N)C[C@H](C(=O)N2CCC(c3ccnn3-c3ccc(F)c(Cl)c3)CC2)[C@@H](c2ccc(F)cc2F)C1 | 185 nM | 2130 nM | 100% | 20% | 0.035 | 72% | 21.7 ×10⁻⁶ cm/s | 3.9 nM | 100% | 0.07 | 0.065 | 51 nM | 0.28 | 142 nM | 0.7 nM | >=100% | 73% | 1.5 nM | Activity (Mus musculus [2]): Non-toxic; Kp at 20 h [4]: 0.18; Activity (Mus musculus [7]): 84.2%; concentration at 20 h [11]: 6 nM; Activity (Mus musculus [13]): 31%; Activity (Mus musculus [18]): 38%; concentration at 20 h [21]: 23 nM; IC50 [22]: 1 nM |
| Cc1cc(C2CCN(C(=O)[C@@H]3C[C@@](C)(N)C[C@H]3c3ccc(F)cc3F)CC2)n(-c2ccc(F)c(Cl)c2)n1 | 246 nM | 2820 nM | 96.1% | 60% | 0.036 | 62.8% | 24 ×10⁻⁶ cm/s | 10.1 nM | 99.6% | 0.17 | 0.043 | 39 nM | 0.18 | 363 nM | 1.6 nM | >=100% | 90% | 3.7 nM | Vd [27]: 6.2 L/kg; clearance [28]: 18 mL/min/kg; bioavailability [29]: 57%; half-life [30]: 4.9 h; AUC/dose (Mus musculus [31]): 1 µM·kg·h/mg |
